Experimental data from paper PMC5879447, “Discovery of Novel Bovine Viral Diarrhea Inhibitors Using Structure-Based Virtual Screening on the Envelope Protein E2” (Frontiers in Chemistry, 2018).
Like-named read-outs stand apart in the source and are kept apart here.

How the values were obtained:
BVDV [1] = test: Reporter-based assay for antiviral activity (cpBVDV/Npro GFP, flow cytometry); assay type: cell-based, Bovine viral diarrhea virus; details: read-out: IC50 BVDV
Method: Antiviral activity was evaluated in a reporter-based assay using a recombinant virus expressing GFP, cpBVDV/Npro GFP (Pascual et al., [2018]). MDBK cells were seeded onto 24 well plates, infected with cpBVDV/Npro GFP at a multiplicity of infection of 0.1 in the presence of increasing concentrations of compounds. At 48 h post-infection cells were thoroughly washed, lifted with trypsin 0.05% and fixed using 4% paraformaldehyde in PBS. The fluorescence signal was measured using a flow cytometer (CyFlow® Space, Partec) at a detection spectrum of 488 nm. Data were analyzed in the FlowJo 7.6.2 software package. The inhibitory concentrations 50 (IC50s) for the compounds tested in the assay were calculated from curves constructed by plotting the percentage of infected cells versus the concentration of compound as the compound concentration necessary to reduce the number of infected cells by 50% compared to control non-treated cells.
First, we assayed selected compounds for cytotoxicity in cultured cells. […] The remainder of the compounds were evaluated for antiviral activity in a reporter-based assay using a recombinant BVDV virus carrying GFP on its genome to infect MDBK cells (Pascual et al., [2018]). Expression of GFP induced by BVDV infection was measured 2 days after infection using flow cytometry. Inhibition of BVDV infection was assessed by comparing the number of GFP positive cells in non-treated control cells and in cells treated with increasing amounts of compound.

[2] = Cytotoxicity assay (cell viability, crystal violet staining); assay type: cell-based, Bos taurus; details: cattle (Bos taurus), MDBK cells, 3 days at 37°C, mean and SD of at least two independent experiments
Method: (§1) MDBK cells (Bos taurus kidney, ATCC CCL-22) were purchased from ATCC and grown in Dulbecso's modified Eagle medium (DMEM) supplemented with 10% fetal bovine serum and antibiotics under 5% CO2 at 37°C. For infections, cells were cultivated in DMEM supplemented with 2% Horse serum and antibiotics under 5% CO2 at 37°C.
(§2) Cell viability assays were performed on confluent cell cultures in 96 well plates (~15,000 cells per well). For each compound, cells were treated with serial dilutions of the compound in quadruplicates and incubated at 37°C for 3 days. Then, cell viability was measured using crystal violet staining. Briefly, cells were fixed with 10% formaldehyde, stained with crystal violet solution (20% Ethanol, 0.1% Crystal Violet), and after washing, the absorbance at 595 nm was recorded for each well in a spectrophotometer. Assays were conducted at least in duplicates, and the cytotoxic concentration 50 (CC50) was estimated by a nonlinear regression fitting of five data points as the compound concentration necessary to reduce cell viability by 50% compared to control non-treated cells.

MDBK cells [3] = test: as above; assay type: cell-based, Bos taurus
Method: as §1, §2

BVDV cell entry = test system: BVDV cell entry; set-up: method as in Pascual et al., 2018; details: previously shown; ref Pascual et al., 2018; cited from earlier work
BVDV [4] = test system: BVDV; set-up: method as in Pascual et al. (2018); details: MDBK cells infected with cpBVDV/Npro GFP; ref Pascual et al. (2018); cited from earlier work
MDBK cells [5] = test system: MDBK cells; set-up: method as in Pascual et al. (2018); details: ref Pascual et al. (2018), cited from earlier work
[6] = Bovine viral diarrhea virus isolates and strains, MDBK, 48 h
[7] = MDBK cells (bovine kidney, ATCC CCL-22)

C[C@@H](Sc1nnc(-c2cccnc2)n1N)C(=O)Nc1cccc(C(F)(F)F)c1 [Compound 4]
IC50 (BVDV [1]; [6]): 30.1 ± 2.9 µM | CC50 at 3 days [2, 7]: > 50 µM | cytotoxicity at 50 μM (MDBK cells [3]; MDBK cells, 50 μM): no cytotoxicity was detected

OCCCc1nc2ccccc2[nH]1 [BI03]
block of BVDV cell entry (BVDV cell entry): specifically block BVDV cell entry | IC50 (BVDV [4]): 17.6 ± 6.4 µM | cytotoxicity at 50 μM (MDBK cells [5]): no cytotoxicity was detected | CC50 (MDBK cells [5]): > 200 µM

(E)-2-(4-(dimethylamino)benzylidene)-N-(4-(trifluoromethyl)phenyl)hydrazinecarbothioamide [Compound 11]
IC50 (BVDV [1]; MDBK cells infected with cpBVDV/Npro GFP, MOI 0.1, 48 h post-infection, mean and SD of at least two independent experiments, NA = assayed but not active): 23.9 ± 7.9 µM | CC50 (MDBK cells [3]): > 50 µM | cytotoxicity at 50 μM (MDBK cells [3]): no cytotoxicity was detected

Cc1cccc(Cl)c1NC(=N)NC(=N)N [Compound 5]
CC50 at 3 days [2, 7]: > 50 µM

Cc1cc(NC(=O)CCC(=O)O)no1 [Compound 14, 4-((5-methylisoxazol-3-yl)amino)-4-oxobutanoic acid]
CC50 at 3 days [2, 7]: > 50 µM

O=C(OCCO)c1cccc2c1-c1ccccc1C2=O [Compound 13]
CC50 at 3 days [2, 7]: 61.5 ± 1.4 µM

C1=C(c2nc3ccccc3o2)CCN1Cc1ncc[nH]1 [Compound 2]
IC50 (BVDV [1]; [6]): 44.3 ± 10.3 µM | CC50 at 3 days [2, 7]: > 50 µM

NNC(=O)c1ccccc1NC(=O)c1ccccc1 [Compound 3]
CC50 at 3 days [2]: > 50 µM

O=C(NCc1ccc2c(c1)OCO2)Oc1ccccc1 [Compound 7]
CC50 at 3 days [2]: > 50 µM

4-chloro-N-(isoxazol-5-yl)benzamide [Compound 15]
CC50 (MDBK cells [3]): > 50 µM

CCOC(=O)c1ccc2nc(NC(=O)c3cccc(Cl)c3)sc2c1 [Compound 8]
IC50 (BVDV [1]; [6]): 20.2 ± 3.6 µM | CC50 at 3 days [2, 7]: > 50 µM | cytotoxicity at 50 μM (MDBK cells [3]; MDBK cells, 50 μM): no cytotoxicity was detected

CS/C(=N\S(=O)(=O)c1ccc(-n2nc(C(F)(F)F)cc2-c2cccs2)cc1)N1CCCC1 [Compound 9]
CC50 at 3 days [2, 7]: > 50 µM

N=C(N)Nc1nc2ccccc2[nH]1 [Compound 12, 2-Guanidinobenzimidazole]
IC50 (BVDV [1]; [6]): 44.4 ± 11.5 µM | CC50 at 3 days [2, 7]: > 50 µM

COc1ccccc1NC(=O)Cc1nnc(SCC(=O)Nc2cc(Cl)ccc2C)n1C [Compound 10]
CC50 at 3 days [2, 7]: > 50 µM

COc1ccc(C(=O)Nc2cc(-c3ccccc3)sc2C(N)=O)cc1OC [PTC12]
block of BVDV cell entry (BVDV cell entry): specifically block BVDV cell entry | IC50 (BVDV [4]): 0.3 ± 0.1 µM | cytotoxicity at 50 μM (MDBK cells [5]): no cytotoxicity was detected | CC50 (MDBK cells [5]): 89.5 ± 1.1 µM

O=C(NNC(=O)c1cc2cc(OC(F)(F)F)ccc2[nH]1)c1cccc(C(F)(F)F)c1 [Compound 6]
CC50 at 3 days [2, 7]: 7.2 ± 1.3 µM | cytotoxicity in cultured cells (MDBK cells [3]; MDBK cells, compound discarded from further analysis): high toxicity

c1ccc(CN2CCN(c3cccc4[nH]cnc34)CC2)cc1 [Compound 1]
CC50 at 3 days [2, 7]: > 50 µM

Cc1ccc(CNC(=N)NC(=N)N)cc1 [Compound 17]
CC50 at 3 days [2, 7]: > 50 µM

O=C(Nc1ccc(OC(F)(F)F)cc1)c1ccco1 [Compound 16, N-(4-(trifluoromethoxy)phenyl)furan-2-carboxamide]
CC50 at 3 days [2, 7]: 49.8 ± 1.5 µM
